In US10336762B2 (priority 2017, dated 2019):
Structures can show the parent of a compound that is named as a salt. Where two headings read alike, the source gives them in different places.

Tests used:
TNFα = assay: cells; assay type: cell-based, human; conditions: Homo sapiens, Monocyte, read-out: EC50 TNF
IRAK4 enzyme = IRAK4 enzyme (Homo sapiens (Human), UniProt Q9NWZ3); assay: biochemical; assay type: biochemical
[1] = LPS-stimulated human monocytes, TNFα content
[2] = IRAK4 enzyme, TR-FRET (HTRF), 500 μM ATP
[3] = IRAK4 enzyme, TR-FRET, 500 μM ATP
[4] = LPS-stimulated human monocytes, TNFα by TR-FRET

Chain of IRAK4 enzyme (Q9NWZ3 whole entry): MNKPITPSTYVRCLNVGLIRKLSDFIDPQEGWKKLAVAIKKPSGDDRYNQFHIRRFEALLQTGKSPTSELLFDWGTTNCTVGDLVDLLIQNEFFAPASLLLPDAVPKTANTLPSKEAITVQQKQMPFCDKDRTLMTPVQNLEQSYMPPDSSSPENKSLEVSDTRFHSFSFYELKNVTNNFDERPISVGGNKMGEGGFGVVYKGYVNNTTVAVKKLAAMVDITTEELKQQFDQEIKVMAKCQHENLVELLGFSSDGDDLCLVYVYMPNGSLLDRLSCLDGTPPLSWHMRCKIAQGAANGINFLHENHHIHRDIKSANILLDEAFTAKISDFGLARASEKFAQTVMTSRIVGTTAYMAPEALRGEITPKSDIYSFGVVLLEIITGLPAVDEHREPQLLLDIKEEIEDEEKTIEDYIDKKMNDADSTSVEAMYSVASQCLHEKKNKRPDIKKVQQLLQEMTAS

## COC(=O)N1CC[C@H](Nc2cc(-c3ccc4cc(C#N)cnn34)ncc2C(=O)NC[C@@H](F)C(C)(C)O)C1 [Example 751, (S)-methyl 3-((2-(3-cyano-pyrrolo[1,2-b]pyridazin-7-yl)-5-(((R)-2-fluoro-3-hydroxy-3-methylbutyl)carbamoyl)pyridin-4-yl)amino)pyrrolidine-1-carboxylate]
TNFα; [1]
  EC50: 333 nM
IRAK4 enzyme; [2]
  IC50: 4 nM

## CC(C)(O)[C@H](F)CNC(=O)c1cnc(-c2ccc3cc(C#N)cnn23)cc1NCCCS(C)(=O)=O [Example 103, (R)-6-(3-cyanopyrrolo[1,2-b]pyridazin-7-yl)-N-(2-fluoro-3-hydroxy-3-methylbutyl)-4-((3-(methylsulfonyl)propyl)amino)nicotinamide]
TNFα; [1]
  EC50: 75 nM
IRAK4 enzyme; [3]
  IC50: < 1 nM

## CC(C)(O)[C@H](F)CNC(=O)c1cnc(-c2ccc3cc(C#N)cnn23)cc1-n1cc(-c2cnc(N)cn2)cn1 [Example 936, (R)-4-(4-(5-aminopyrazin-2-yl)-1H-pyrazol-1-yl)-6-(3-cyanopyrrolo[1,2-b]pyridazin-7-yl)-N-(2-fluoro-3-hydroxy-3-methylbutyl) nicotinamide]
TNFα; [4]
  EC50: > 10000 nM
IRAK4 enzyme; [3]
  IC50: 147 nM

## C[C@]1(O)C[C@@H](Nc2cc(-c3ccc4cc(C#N)cnn34)ncc2C(=O)NCC#N)C1 [Example 388, N-(cyanomethyl)-6-(3-cyanopyrrolo[1,2-b]pyridazin-7-yl)-4-(((1s,3s)-3-hydroxy-3-methylcyclobutyl)amino) nicotinamide]
TNFα; [1]
  EC50: 96 nM
IRAK4 enzyme; [3]
  IC50: 1 nM

## CC(C)(O)[C@H](F)CNC(=O)c1cnc(-c2ccc3cc(C#N)cnn23)cc1N[C@@H]1C[C@H]2CNC[C@H]2C1 [Example 251, 6-(3-cyanopyrrolo[1,2-b]pyridazin-7-yl)-N-((R)-2-fluoro-3-hydroxy-3-methylbutyl)-4-(((3aR,5s,6aS)-octa-hydrocyclopenta[c]pyrrol-5-yl)amino) nicotinamide]
TNFα; [1]
  EC50: 117 nM
IRAK4 enzyme; [3]
  IC50: 1 nM

## CC1(F)CN(C(=O)CNC(=O)c2cnc(-c3ccc4cc(C#N)cnn34)cc2NC23CCC(O)(CC2)CC3)C1 [Example 797, 6-(3-cyanopyrrolo[1,2-b]pyridazin-7-yl)-N-(2-(3-fluoro-3-methyl-azetidin-1-yl)-2-oxoethyl)-4-((4-hydroxybicyclo[2.2.2]octan-1-yl)amino) nicotinamide]
TNFα; [4]
  EC50: 38 nM
IRAK4 enzyme; [3]
  IC50: 1 nM

## CC(C)(O)[C@H](F)CNC(=O)c1cnc(-c2ccc3cc(C#N)cnn23)cc1Nc1ccc2c(c1)CC(=O)N2 [Example 650, (R)-6-(3-cyanopyrrolo[1,2-b]pyridazin-7-yl)-N-(2-fluoro-3-hydroxy-3-methylbutyl)-4-((2-oxo-indolin-5-yl)amino) nicotinamide]
TNFα; [1]
  EC50: 16 nM
IRAK4 enzyme; [2]
  IC50: < 1 nM

## CC(C)C(=O)NC[C@H]1C[C@H](Nc2cc(-c3ccc4cc(C#N)cnn34)ncc2C(=O)NC[C@@H](F)C(C)(C)O)C1 [Example 938, 6-(3-cyanopyrrolo[1,2-b]pyridazin-7-yl)-N-((R)-2-fluoro-3-hydroxy-3-methylbutyl)-4-(((1r,3R)-3-(isobutyramidomethyl)cyclobutyl)amino) nicotinamide]
TNFα; [4]
  EC50: 68 nM
IRAK4 enzyme; [3]
  IC50: 1 nM

## CC(C)(O)[C@H](F)CNC(=O)c1cnc(-c2ccc3cc(C#N)cnn23)cc1Nc1ccc(CNCC(F)F)cc1 [Example 872, (R)-6-(3-cyanopyrrolo[1,2-b]pyridazin-7-yl)-4-((4-(((2,2-difluoroethyl)amino)methyl)phenyl)amino)-N-(2-fluoro-3-hydroxy-3-methylbutyl)nicotinamide]
TNFα; [4]
  EC50: 14 nM
IRAK4 enzyme; [3]
  IC50: < 1 nM

## CC(C)(O)[C@H](F)CNC(=O)c1cnc(-c2ccc3cc(C#N)cnn23)cc1NC12CCC(c3cnco3)(CC1)OC2 [Example 633, (R)-6-(3-cyanopyrrolo[1,2-b]pyridazin-7-yl)-N-(2-fluoro-3-hydroxy-3-methylbutyl)-4-((1-(oxazol-5-yl)-2-oxabicyclo[2.2.2]octan-4-yl)amino) nicotinamide]
TNFα; [1]
  EC50: 2 nM
IRAK4 enzyme; [2]
  IC50: < 1 nM

## CC(C)(O)[C@H](F)CNC(=O)c1cnc(-c2ccc3cc(C#N)cnn23)cc1N[C@@H]1CCC[C@@H](O)C1 [Example 61, 6-(3-cyanopyrrolo[1,2-b]pyridazin-7-yl)-N-((R)-2-fluoro-3-hydroxy-3-methylbutyl)-4-(((1R,3R)-3-hydroxycyclohexyl)amino) nicotinamide]
TNFα; [1]
  EC50: 89 nM
IRAK4 enzyme; [3]
  IC50: < 1 nM

## CC(C)(O)[C@H](F)CNC(=O)c1cnc(-c2ccc3cc(C#N)cnn23)cc1N[C@H]1CCC[C@H]1O [Example 261, 6-(3-cyanopyrrolo[1,2-b]pyridazin-7-yl)-N-((R)-2-fluoro-3-hydroxy-3-methylbutyl)-4-(((1S,2R)-2-hydroxycyclopentyl)amino)nicotinamide]
TNFα; [1]
  EC50: 41 nM
IRAK4 enzyme; [3]
  IC50: < 1 nM

## COC(=O)C1CC2(CC(NC(=O)c3cnc(-c4ccc5cc(C#N)cnn45)cc3NC(C)C)C2)C1 (stereo not shown) [Example 60, methyl 6-(6-(3-cyano-pyrrolo[1,2-b]pyridazin-7-yl)-4-(isopropylamino)nicotinamido) spiro[3.3]heptane-2-carboxylate]
TNFα; [1]
  EC50: 512 nM
IRAK4 enzyme; [3]
  IC50: 1 nM

## COC(=O)N1CC2(CC(Nc3cc(-c4ccc5cc(C#N)cnn45)ncc3C(=O)NC[C@@H](F)C(C)(C)O)C2)C1 [Example 897, (R)-methyl 6-((2-(3-cyano-pyrrolo[1,2-b]pyridazin-7-yl)-5-((2-fluoro-3-hydroxy-3-methylbutyl)carbamoyl)pyridin-4-yl)amino)-2-azaspiro[3.3]heptane-2-carboxylate]
TNFα; [4]
  EC50: 421 nM
IRAK4 enzyme; [3]
  IC50: 2 nM

## CC(C)(O)[C@H](F)CNC(=O)c1cnc(-c2ccc3cc(C#N)cnn23)cc1N[C@@H]1CC[C@@H](c2cnco2)OC1 [Example 639, 6-(3-cyanopyrrolo[1,2-b]pyridazin-7-yl)-N-((R)-2-fluoro-3-hydroxy-3-methylbutyl)-4-(((3R,6S)-6-(oxazol-5-yl)tetrahydro-2H-pyran-3-yl)amino)nicotinamide]
TNFα; [1]
  EC50: 43 nM
IRAK4 enzyme; [2]
  IC50: 1 nM

## CC(C)Nc1cc(-c2ccc3cc(C#N)cnn23)ncc1C(=O)NCCC(C)(C)N [Example 252, N-(3-amino-3-methyl-butyl)-6-(3-cyano-pyrrolo[1,2-b]pyridazin-7-yl)-4-(isopropylamino) nicotinamide]
TNFα; [1]
  EC50: 78 nM
IRAK4 enzyme; [3]
  IC50: 2 nM

## CNC(=O)C12CCC(Nc3cc(-c4ccc5cc(C#N)cnn45)ncc3C(=O)NC[C@@H](F)C(C)(C)O)(CC1)CC2 [Example 416, 6-(3-cyanopyrrolo[1,2-b]pyridazin-7-yl)-N-((R)-2-fluoro-3-hydroxy-3-methylbutyl)-4-((4-(methylcarbamoyl)bicyclo[2.2.2]octan-1-yl)amino)nicotinamide]
TNFα; [1]
  EC50: 16 nM
IRAK4 enzyme; [2]
  IC50: 1 nM

## CC(C)(O)[C@H](F)CNC(=O)c1cnc(-c2ccc3cc(C#N)cnn23)cc1Nc1cnc(Cl)nc1 [Example 971, (R)-4-((2-chloropyrimidin-5-yl)amino)-6-(3-cyano-pyrrolo[1,2-b]pyridazin-7-yl)-N-(2-fluoro-3-hydroxy-3-methylbutyl)nicotinamide]
TNFα; [4]
  EC50: 74 nM
IRAK4 enzyme; [3]
  IC50: < 1 nM

## CNC(=O)c1cnc(-c2ccc3cc(C#N)cnn23)cc1N[C@H]1C[C@@H](C(=O)NC)C1 [Example 471, 6-(3-cyanopyrrolo[1,2-b]pyridazin-7-yl)-N-methyl-4-(((1s,3s)-3-(methylcarbamoyl)cyclobutyl)amino) nicotinamide]
TNFα; [1]
  EC50: 74 nM
IRAK4 enzyme; [2]
  IC50: 9 nM

## CNC(=O)C12CCC(Nc3cc(-c4ccc5cc(C#N)cnn45)ncc3C(=O)NCC#N)(CC1)CC2 [Example 475, N-(cyanomethyl)-6-(3-cyanopyrrolo[1,2-b]pyridazin-7-yl)-4-((4-(methylcarbamoyl)bicyclo[2.2.2]octan-1-yl)amino)nicotinamide]
TNFα; [1]
  EC50: 16 nM
IRAK4 enzyme; [2]
  IC50: < 1 nM

## CC(C)(O)[C@H](F)CNC(=O)c1cnc(-c2ccc3cc(C#N)cnn23)cc1NC1CC(Cc2cnco2)C1 (stereo partly drawn) [Example 636, (R)-6-(3-cyanopyrrolo[1,2-b]pyridazin-7-yl)-N-(2-fluoro-3-hydroxy-3-methylbutyl)-4-((3-(oxazol-5-ylmethyl)cyclobutyl)amino)nicotinamide]
TNFα; [1]
  EC50: 33 nM
IRAK4 enzyme; [2]
  IC50: < 1 nM

## C[C@]1(O)C[C@H](Nc2cc(-c3ccc4cc(C#N)cnn34)ncc2C(=O)NCC#N)C1 [Example 389, N-(cyanomethyl)-6-(3-cyanopyrrolo[1,2-b]pyridazin-7-yl)-4-(((1r,3r)-3-hydroxy-3-methylcyclobutyl)amino) nicotinamide]
TNFα; [1]
  EC50: 137 nM
IRAK4 enzyme; [3]
  IC50: 3 nM

## CCOc1nccc(Nc2cc(-c3ccc4cc(C#N)cnn34)ncc2C(=O)NC[C@@H](F)C(C)(C)O)n1 [Example 848, (R)-6-(3-cyanopyrrolo[1,2-b]pyridazin-7-yl)-4-((2-ethoxypyrimidin-4-yl)amino)-N-(2-fluoro-3-hydroxy-3-methylbutyl) nicotinamide]
TNFα; [4]
  EC50: 112 nM
IRAK4 enzyme; [3]
  IC50: 2 nM

## CC(C)(O)[C@H](F)CNC(=O)c1cnc(-c2ccc3cc(C#N)cnn23)cc1NC12CCC(CC1)CC2 [Example 421, (R)-4-(bicyclo[2.2.2]octan-1-ylamino)-6-(3-cyano-pyrrolo[1,2-b]pyridazin-7-yl)-N-(2-fluoro-3-hydroxy-3-methylbutyl)nicotinamide]
TNFα; [1]
  EC50: 24 nM
IRAK4 enzyme; [2]
  IC50: 2 nM

## COC(=O)N[C@H]1CC[C@H](Nc2cc(-c3ccc4cc(C#N)cnn34)ncc2C(=O)NC[C@@H](F)C(C)(C)O)C1 [Example 750, methyl ((1S,3S)-3-((2-(3-cyanopyrrolo[1,2-b]pyridazin-7-yl)-5-(((R)-2-fluoro-3-hydroxy-3-methylbutyl)carbamoyl)pyridin-4-yl)amino)cyclopentyl) carbamate]
TNFα; [1]
  EC50: 198 nM
IRAK4 enzyme; [2]
  IC50: 1 nM

## CC(C)(O)[C@H](F)CNC(=O)c1cnc(-c2ccc3cc(C#N)cnn23)cc1N[C@H]1CC[C@H](N)CC1 [Example 316, 4-(((1r,4R)-4-aminocyclohexyl)amino)-6-(3-cyanopyrrolo[1,2-b]pyridazin-7-yl)-N-((R)-2-fluoro-3-hydroxy-3-methylbutyl)nicotinamide hydrochloride]
TNFα
  EC50: 136 nM
IRAK4 enzyme
  IC50: < 1 nM
